# From US20230295152A1 (SENDA BIOSCIENCES, INC., priority 2019, published 2023)
# How the values were obtained:
# [1] = Plasma Protein Binding with Ultracentrifugation Method, human; type: in vitro ADME; settings: human plasma, 1.0 μM; read-out: Human plasma protein binding (% bound)
# Experimental: The frozen plasma (stored at −80° C.) was thawed in a 37° C. water bath, followed by centrifugation at 3,220 g for 10 minutes to remove clots. The supernatant was removed into a new tube as the spun plasma. The spun plasma was pre-warmed in a 37° C. water bath for 10 minutes. The stock solutions of test compounds were diluted to 200 μM in DMSO, and then spiked into the plasma. Duplicate samples were prepared. The final concentration of compound was 1.0 μM. The final concentration of organic solvent was 0.5%. Warfarin was used as positive control in the assay. 1.0 mL of the spiked plasma was transferred to a new balance ultracentrifuge tube. Samples were incubated at 37° C., 5% CO2 for 30 minutes. After incubation, the balance ultracentrifuge tubes were centrifuged at 600,000 g for 5.5 hours at 37° C. After centrifugation, 50 μL solution was removed from the center of the ultracentrifuge tubes as the post-ultracentrifugation samples, followed by the addition of 50 μL blank plasma and 400 μL quench solution (acetonitrile containing internal standards (IS, 100 nM Alprazolam, 500 nM Labetalol and 2 μM Ketoprofen)) to precipitate protein and release compounds. Samples were vortexed for 2 minutes, followed by centrifugation at 20,000 g for 15 minutes at room temperature. The supernatant was diluted with ultrapure water and then used for LC-MS/MS analysis. Stability samples was prepared by transferring 50 μL of the spiked plasma to 0.6 mL tubes and incubated at 37° C., 5% CO2 for 0.5 and 6 hours. After incubation, 50 μL PBS (100 mM, pH7.4) and 400 μL quench solution were added to the stability samples. And then stability samples were treated the same way as the post-ultracentrifugation samples. The supernatant was diluted with ultrapure water and then used for LC-MS/MS analysis. 0.5 hour time point samples were also used as no-spun controls. Time 0 samples were prepared by transferring 50 μL spiked plasma to 0.6 mL tubes containing 50 μL PBS, followed by the addition of 400 μL quench solution to precipitate protein and release compound. And then these samples were treated the same way as the post-ultracentrifugation samples. The supernatant was diluted with ultrapure water and then used for LC-MS/MS analysis.
# Data Analysis: All calculations were carried out using Microsoft Excel. The concentrations of test compound in plasma samples and post-ultracentrifugation plasma was determined from peak areas. The percentages of test compound bound was calculated as follows: […]
# “+++” indicates a % bound value less than 50, “++” indicates a % bound value between 50 and 75, and “+” indicates a % bound value above 75.
# [2] = Caco-2 Permeability Assay; type: in vitro ADME; settings: human; for Papp A→B at 2 h, 1 μM: Caco-2, pH 7.4, apical to basolateral, read-out: Caco2 Papp (AB); for Papp B→A at 2 h, 1 μM: Caco-2, pH 7.4, basolateral to apical, read-out: Caco2 Papp (BA)
# Experimental: Preparation of Caco-2 Cells: 50 μL and 25 mL of cell culture medium were added to each well of the Transwell insert and reservoir, respectively. The HTS transwell plates were incubated at 37° C., 5% CO2 for 1 hour before cell seeding. Caco-2 cells were diluted to 6.86×10^5 cells/mL with culture medium and 50 μL of cell suspension were dispensed into the filter well of the 96-well HTS Transwell plate. Cells were cultivated for 14-18 days in a cell culture incubator at 37° C., 5% CO2, 95% relative humidity. Cell culture medium was replaced every other day, beginning no later than 24 hours after initial plating.
# Assessment of Cell Monolayer Integrity: Medium was removed from the reservoir and each Transwell insert and replaced with prewarmed fresh culture medium. Transepithelial electrical resistance (TEER) across the monolayer was measured using Millicell Epithelial Volt-Ohm measuring system (Millipore, USA). The Plate was returned to the incubator once the measurement was done. The TEER value was calculated according to the following equation:
# TEER measurement(ohms)×Area of membrane(cm^2)=TEER value(ohm·cm^2)
# TEER value should be greater than 230 ohm·cm^2, which indicates the well-qualified Caco-2 monolayer.
# Preparation of Solutions: 2 mM stock solutions in DMSO of control compounds were prepared and diluted with HBSS (10 mM HEPES, pH 7.4) to get 10 μM working solution. 0.2 mM stock solutions of test compounds in DMSO were prepared and diluted with HBSS (10 mM HEPES, pH 7.4 with 0.5% BSA) to get 1 μM working solution. Metoprolol, erythromycin and cimetidine were used as control compounds.
# Performing the Drug Transport Assay: The Caco-2 plate was removed from the incubator. The monolayer was washed twice with pre-warmed HBSS (10 mM HEPES, pH 7.4). The plate was incubated at 37° C. for 30 minutes. To determine the rate of drug transport in the apical to basolateral direction, 125 μL of the working solution was added to the Transwell insert (apical compartment). A 50 μL sample was transferred immediately from the apical compartment to 200 μL of acetonitrile containing IS (100 nM alprazolam, 200 nM Caffeine and 100 nM tolbutamide) in a new 96-well plate as the initial donor sample (A-B) and it was vortexed at 1000 rpm for 10 minutes. The wells in the receiver plate (basolateral compartment) were filled with 235 μL of transport buffer. To determine the rate of drug transport in the basolateral to apical direction, 285 μL of the working solution were added to the receiver plate wells (basolateral compartment). A 50 μL sample was transferred immediately from the basolateral compartment to 200 μL of acetonitrile containing IS (100 nM alprazolam, 200 nM Caffeine and 100 nM tolbutamide) in a new 96-well plate as the initial donor sample (B-A) and it was vortexed at 1000 rpm for 10 minutes. The Transwell insert (apical compartment) was filled with 75 μL of transport buffer. The apical to basolateral direction and the basolateral to apical direction need to be done at the same time. The plates were incubated at 37° C. for 2 hours. At the end of the incubation, 50 μL samples from donor sides (apical compartment for Ap→B1 flux, and basolateral compartment for B1→Ap) and receiver sides (basolateral compartment for Ap→B1 flux, and apical compartment for B1→Ap) were transferred to wells of a new 96-well plate, followed by the addition of 4 volume of acetonitrile containing IS (100 nM alprazolam, 200 nM Caffeine and 100 nM tolbutamide). Samples were vortexed for 10 minutes, 50 μL samples were transferred to wells of a new 96-well plate, followed by the addition of 50 μL Hepes and 200 μL IS. A11 samples were vortexed for 10 minutes, and then centrifuged at 3,220 g for 40 minutes. An aliquot of 150 μL of the supernatant was mixed with an appropriate volume of ultra-pure water before LC-MS/MS analysis.
# Data analysis: All calculations were carried out using Microsoft Excel. Peak areas were determined from extracted ion chromatograms. […]
Compound,"fraction unbound at 30 min, 1 μM [1]","Papp A→B at 2 h, 1 μM [2] [×10⁻⁶ cm/s]","Papp B→A at 2 h, 1 μM [2] [×10⁻⁶ cm/s]"
O=c1c2cc(-c3ccc(C(F)(F)F)nc3)nc(-c3cccnc3)c2ncn1[C@@H]1COC[C@H]1O [Compound 79],< 0.25,–,–
C[C@@H](n1cnc2c(-c3cnn(C)c3)nc(-c3ccc(Cl)cc3)cc2c1=O)C(C)(C)O [Compound 31],–,2 to 10,< 2
C[C@@H](CO)n1cnc2c(-c3cccnc3)nc(-c3ccc(C(F)(F)F)nc3)cc2c1=O [Compound 12],< 0.25,2 to 10,> 10
"C[C@@H](CO)n1cnc2c(-c3cncc(F)c3)nc(-c3ccc(OC(F)(F)F)cc3)cc2c1=O [Compound 1, (S)-8-(5-fluoropyridin-3-yl)-3-(1-hydroxypropan-2-yl)-6-(4-(trifluoromethoxy)phenyl)pyrido[3,4-d]pyrimidin-4(3H)-one]",< 0.25,2 to 10,< 2
C[C@@H](n1cnc2c(-c3cccnc3)nc(-c3ccc(Cl)cc3)cc2c1=O)C(C)(C)O [Compound 33],< 0.25,2 to 10,2 to 10
Cn1cc(-c2nc(-c3ccc(Cl)cc3)cc3c(=O)n(CC(C)(C)O)cnc23)cn1 [Compound 21],< 0.25,2 to 10,< 2
C[C@@H](CO)n1cnc2c(-c3cnn(C)c3)nc(-c3ccc(Cl)cc3)cc2c1=O [Compound 27],< 0.25,2 to 10,< 2
CC(C)(O)Cn1cnc2c(-c3cccnc3)nc(-c3ccc(C(F)(F)F)cc3)cc2c1=O [Compound 16],< 0.25,2 to 10,2 to 10
"O=c1c2cc(-c3ccc(Cl)cc3)nc(-c3cccnc3)c2ncn1[C@H]1COC[C@@H]1O [Compound 125, 6-(4-chlorophenyl)-3-((3S,4R)-4-hydroxytetrahydrofuran-3-yl)-8-(pyridin-3-yl)pyrido[3,4-d]pyrimidin-4(3H)-one]",< 0.25,–,–
"C[C@@H](CO)n1cnc2c(-n3ccnc3)nc(-c3ccc(OC(F)(F)F)cc3)cc2c1=O [Compound 44, (S)-3-(1-hydroxypropan-2-yl)-8-(1H-imidazol-1-yl)-6-(4-(trifluoromethoxy)-phenyl)pyrido[3,4-d]pyrimidin-4(3H)-one]",< 0.25,2 to 10,2 to 10
"C[C@@H](CO)n1cnc2c(-c3cccc(F)c3)nc(-c3ccc(C(F)(F)F)cn3)cc2c1=O [Compound 47, (S)-8-(3-fluorophenyl)-3-(1-hydroxypropan-2-yl)-6-(5-(trifluoromethyl)pyridin-2-yl)pyrido[3,4-d]pyrimidin-4(3H)-one]",< 0.25,< 2,< 2
